What was measured:
Assay type in all cases: cell-based
smooth muscle cells [1] = experiment: FDA staining and fluorescence microscopy of smooth muscle cells, different doses of ascorbic acid (Example Twelve); settings: for confluence of smooth muscle cells: after 7 days
Text: (§1) Example 12 provides a qualitative characterization of the Example Eleven results using fluorescence microscopy. More specifically, the growth of smooth muscle cells in the presence of five different doses of ascorbic acid was investigated by staining the live cells with fluorescein diacetate (FDA). The FDA-stained live cells were then imaged using fluorescence microscopy on day 1, day 3, day 5, and day 7 of culture. On each day, a determination of growth (viability and proliferation) of smooth muscle cells was made.

endothelial cells [2] = experiment: Resazurin fluorometric assay (Alamar Blue) of endothelial cell cultures (Example Two); settings: RFU, FIG. 5
Description: In order to provide a quantitative characterization of the Example One results, a resazurin fluorometric assay (Alamar Blue) was used. A solution of Alamar Blue was added to the endothelial cell cultures which were already treated with ascorbic acid, sirolimus, or paclitaxel. A control lacking any therapeutic agent was included. After respective time points (1, 3, 5, and 7 days), the fluorescence of the solution was measured using a microplate reader. The collected data is provided as relative fluorescence units (RFU) vs. time for all the three groups (ascorbic acid, sirolimus, and paclitaxel) of samples.

endothelial cells [3] = experiment: Resazurin fluorometric assay of endothelial cells, different doses of ascorbic acid (Example Seven)
Description: (§2) In Example 7, a quantitative resazurin fluorometric assay was used. A solution of alamarBlue® from a kit purchased from Biotium Inc. (in Hayward, Calif.) was added to the endothelial cell cultures which were already treated with different doses of ascorbic acid. More specifically, the different doses of ascorbic acid included 1 μg/mL, 100 μg/mL, 300 μg/mL, 500 μg/mL, and 1000 μg/mL. A control lacking any ascorbic acid was also included. After respective time points (1, 3, 5, and 7 days), the fluorescence of the solution was measured using a microplate reader. The collected data is provided as relative fluorescence units (RFU) vs. time for all the six groups (control, 1 μg/mL, 100 μg/mL, 300 μg/mL, 500 μg/mL, and 1000 μg/mL) of samples.

endothelial cells [4] = experiment: Phase contrast microscopy of endothelial cell morphology (Example Six); settings: 100 μg added, day 7, phase contrast
Description: In Example 6, 100 μg of L-ascorbic acid, 100 μg of sirolimus, and 100 μg paclitaxel were added to separate endothelial cell cultures. A control cell culture was also provided in which no agent was added. The effects of L-AA, SIR, and PAT on the growth of endothelial cells was investigated by taking phase contrast images of cells after 7 days using an Axiovert 200 M inverted microscopy (Carl Zeiss) in the bright field imaging mode and examining the cell morphology.

smooth muscle cells [5] = experiment: Phase contrast microscopy of smooth muscle cell morphology (Example Ten); settings: day 7, phase contrast
Text: Example 10 provides a further qualitative characterization of the Example Eight results using phase contrast microscopy. That is, the effects of L-AA, SIR, and PAT on the growth of smooth muscle cells was investigated by taking phase contrast images of cells after 7 days using an Axiovert 200 M inverted microscopy (Carl Zeiss) in the bright field imaging mode and examining the cell morphology.

endothelial cells [6] = experiment: FDA staining and fluorescence microscopy of endothelial cell cultures (Example One); settings: for endothelial cell adhesion: 100 μg added, 15,000 cells per well, day 1; for spreading of endothelial cells: day 5
Description: In Example 1, […] of L-ascorbic acid, 100 μg of sirolimus, and 100 μg paclitaxel were added to separate endothelial cell cultures (15,000 cells per well). A control cell culture was also provided in which no agent was added. The endothelial cell adhesion in the culture well was investigated by staining the live cells with fluorescein diacetate (FDA). The FDA-stained live cells were then imaged using fluorescence microscopy on day one, day 3, day five, and day seven of culture. After five days, a determination of the spreading of endothelial cells was made. After seven days, a determination of growth (viability and proliferation) of endothelial cells was made.

smooth muscle cells [7] = experiment: FDA staining and fluorescence microscopy of smooth muscle cells (Example Nine); settings: for smooth muscle cell growth from one time point to the other: FDA staining, days 1 to 7; for confluence of smooth muscle cells: after 7 days
Text: as §1, with “9” for “12”, “Eight” for “Eleven”, “flurorescence” for “fluorescence”, “three” for “five”, “treatments (ascorbic acid, paclitaxel, and sirolimus)” for “doses of ascorbic acid”

smooth muscle cells [8] = experiment: Resazurin fluorometric assay of smooth muscle cells, different doses of ascorbic acid (Example Eleven)
Description: as §2, with “11,” for “7,”, “smooth muscle” for “the endothelial”

smooth muscle cells [9] = experiment: Resazurin fluorometric assay of smooth muscle cell cultures (Example Eight); settings: for number of smooth muscle cells in comparison to the control: day 1; for smooth muscle cell growth vs control: day 3
Description: In Example 8, a quantitative resazurin fluorometric assay was used. A solution of alamarBlue® from a kit purchased from Biotium Inc. (in Hayward, Calif.) was added to the smooth muscle cell cultures which were already treated with ascorbic acid, sirolimus, or paclitaxel. A control lacking any therapeutic agent was also included. After respective time points (1, 3, 5, and 7 days), the fluorescence of the solution was measured using a microplate reader. The collected data is provided as relative fluorescence units (RFU) vs. time for all the three groups (ascorbic acid, sirolimus, and paclitaxel) of samples.

[10] = days 1 to 7, doses 1 to 1000 μg

## O=C1O[C@H]([C@@H](O)CO)C(O)=C1O [ascorbic acid, L-ascorbic acid]
Smooth muscle cells [1]; 1 μg dose
  inhibitory effect on smooth muscle cells: no inhibitory effect
  confluence of smooth muscle cells: > 90%
Smooth muscle cells [1]; 1000 μg dose
  inhibitory effect on smooth muscle cells: maximum inhibitory effect
  confluence of smooth muscle cells: 30-40%
Smooth muscle cells [1]; 100 μg dose
  confluence of smooth muscle cells: 50-60%
Smooth muscle cells [1]; 300 μg dose
  confluence of smooth muscle cells: 50-60%
Smooth muscle cells [1]; 500 μg dose
  confluence of smooth muscle cells: 30-40%
Smooth muscle cells [1]; doses ranging from 100 to 1000 μg, days 1 to 7
  smooth muscle cell growth: significantly inhibited
Endothelial cells [2]
  growth of endothelial cells relative to cells treated with paclitaxel: 10 fold
  growth of endothelial cells relative to cells treated with sirolimus: 19 fold
  growth of endothelial cells relative to control (no drug): 1.6 fold
Endothelial cells [3]; day 1, all doses (1 to 1000 μg/mL)
  number of endothelial cells vs control: no significant differences
Endothelial cells [3]; day 3, 100 μg dose
  number of endothelial cells vs control and other doses: significantly greater
Endothelial cells [3]; day 5, 100 μg dose
  number of endothelial cells vs control and other doses: significantly greater number of cells
Endothelial cells [3]; day 5, 300 μg dose
  number of endothelial cells vs control and other doses: significantly greater number of cells
Endothelial cells [3]; day 5, 500 μg dose
  number of endothelial cells vs control and other doses: significantly greater number of cells
Endothelial cells [3]; day 7, 300 μg/mL dose
  number of endothelial cells among the groups: maximum number of cells
Endothelial cells [3]; day 7, 100 dose
  number of endothelial cells among the groups: maximum number of cells
Endothelial cells [3]; [10]
  order of viability and proliferation of endothelial cells for the different doses (increasing): 1000 μg<1 μg=control=500 μg<<300 μg=100 μg
Endothelial cells [4]
  endothelial cell morphology: spreading morphology with characteristic polygonal shape
Smooth muscle cells [5]
  smooth muscle cell morphology and spreading: spindle-shaped, but they were less spreading when compared to the control
Endothelial cells [6]
  endothelial cell adhesion: excellent
Endothelial cells [6]; 100 μg added
  spreading of endothelial cells: excellent
Endothelial cells [6]; 100 μg added, day 7
  growth (viability and proliferation) of endothelial cells: excellent
  growth of endothelial cells in comparison to the control: more growth in comparison to the control
Smooth muscle cells [7]
  smooth muscle cell growth from one time point to the other: significantly inhibited
  confluence of smooth muscle cells: 50-60%
Smooth muscle cells [8]; day 1, doses 100 to 1000 μg
  number of smooth muscle cells vs control and 1 μg dose: significantly fewer cells
Smooth muscle cells [8]; day 3 (similar days 5 and 7), 500 and 1000 μg doses
  number of smooth muscle cells vs 100 and 300 μg doses: fewer cells in comparison to the 100 and 300 μg doses
Smooth muscle cells [8]; [10]
  order of viability and proliferation of smooth muscle cells for the different doses (decreasing): control=1 μg>>100 μg=300 μg>500 μg=1000 μg
Smooth muscle cells [9]
  number of smooth muscle cells in comparison to the control: significantly lesser number of cells
  smooth muscle cell growth vs control: significantly inhibited the cell growth
Smooth muscle cells [9]; days 1 to 7
  effect on growth of SMCs (overall): significantly inhibited growth of SMCs
  order of SMC viability and proliferation (decreasing): Control>>ascorbic acid>sirolimus=paclitaxel

## CO[C@H]1C[C@@H]2CC[C@@H](C)[C@@](O)(O2)C(=O)C(=O)N2CCCC[C@H]2C(=O)O[C@H]([C@H](C)C[C@@H]2CC[C@@H](O)[C@H](OC)C2)CC(=O)[C@H](C)/C=C(\C)[C@@H](O)[C@@H](OC)C(=O)[C@H](C)C[C@H](C)/C=C/C=C/C=C/1C [sirolimus]
Smooth muscle cells [7]
  confluence of smooth muscle cells: about 20%

## CC(=O)O[C@H]1C(=O)[C@@]2(C)[C@H]([C@H](OC(=O)c3ccccc3)[C@]3(O)C[C@H](OC(=O)[C@H](O)[C@@H](NC(=O)c4ccccc4)c4ccccc4)C(C)=C1C3(C)C)[C@]1(OC(C)=O)CO[C@@H]1C[C@@H]2O [paclitaxel]
Endothelial cells [4]
  endothelial cell morphology: uncharacteristic oval or round shape with no spreading morphology
Smooth muscle cells [5]
  smooth muscle cell morphology and spreading: not spreading and only very few cells were spindle-shaped
Endothelial cells [6]
  endothelial cell adhesion: poor
Endothelial cells [6]; 100 μg added
  spreading of endothelial cells: poor
Endothelial cells [6]; 100 μg added, day 7
  growth (viability and proliferation) of endothelial cells: poor
Smooth muscle cells [7]
  smooth muscle cell growth from one time point to the other: significantly inhibited
  confluence of smooth muscle cells: about 20%
Smooth muscle cells [9]
  number of smooth muscle cells in comparison to the control: significantly lesser number of cells
  smooth muscle cell growth vs control: significantly inhibited the cell growth
Smooth muscle cells [9]; day 5 (similar on day 7)
  number of smooth muscle cells vs ascorbic acid treatment: lesser numbers of cells than that of the ascorbic acid treatment
Smooth muscle cells [9]; days 1 to 7
  order of SMC viability and proliferation (decreasing): Control>>ascorbic acid>sirolimus=paclitaxel
